In patent publication US20200121604A1, “SOLID FOSMETPANTOTENATE FORMULATIONS” (Retrophin, Inc., priority 2017, published 2020):

Columns and labels:
[1] = test system: wild-type and PanK2-deficient IRM32 cells; assay: Half-life of Coenzyme A in cells treated with labeled fosmetpantotenate or pantothenic acid; assay type: cell-based
Procedure: The half-life of Coenzyme A (CoA) was determined for both wild-type and PanK2-deficient IRM32 cells.
Stable isotopically labeled pantothenic acid (vitamin B5) and fosmetpantotenate, a compound currently in a Phase 3 clinical trial for the treatment of […], were prepared. The PanK2-deficient cell line was treated with labeled fosmetpantotenate (100 μM) while the parental IRM32 (WT) line was treated with labeled pantothenic acid. After 24 h the media was changed to complete media and the cells were harvested at various time points. The fraction of labeled CoA, both free and total, with respect to time 0 was calculated to determine the half-life of CoA under each of these conditions.

[2] = Chemical stability of fosmetpantotenate with and without acetic acid, alone and with MCC, 30° C./65% RH, reverse-phase HPLC; assay type: physicochemical; details: weight percent; for Phenol (%): main degradant
Procedure: Fosmetpantotenate was prepared and purified as in Examples 1 (“with acetic acid”) and Example 28 (“without acid”). Flowability and stability were analyzed for the acetic acid-containing fosmetpantotenate and the “without acid” fosmetpantotenate, alone and when formulated with MCC.
For the MCC formulations, fosmetpantotenate was diluted 1:1 (w:w) with ethyl acetate (HPLC grade, EMD) to generate a solution of viscosity suitable for wet granulation. Porous MCC (Avicel® PH200) was sieved via 120 mesh (125 μm opening) to remove fine particles and then placed in a Freund-Vector GMX-LAB Micro high shear granulator (1 L stainless steel bowl). The impeller speed was kept at 125 rpm during the process. 40 g of 50 wt % fosmetpantotenate ethyl acetate solution (contains 20 g fosmetpantotenate) was added into 80 g substrate at approximately 8 g/min drop-wise via a glass transfer pipette to achieve a 20:80 fosmetpantotenate:MCC ratio (i.e., 20% drug loading by weight). The resulting materials were agitated for an additional 10 minutes followed by tray drying overnight at room temperature to facilitate removal of ethyl acetate.
For the stability analysis, samples of fosmetpantotenate were subdivided and transferred into separate 20 mL clear scintillation vials (about 1 g sample per vial). Closed vials were then placed individually into 5″×7″ foil pouches (CADPAK N-HD, WVTR 0.0005 g/100 in^2/day at 90% RH 40° C.). followed by heat sealing the pouches without desiccant inside. Fosmetpantotenate powder samples were weighed (3 g) and placed directly into the same foil pouches described above, and heat sealed without desiccant inside. Closed samples were stored at 30° C./65% RH and measured after 0, 2, 4, and 8 weeks.
Measurement of impurities was performed by reverse-phase HPLC, utilizing the methods in Table 10. Water:acetonitrile 95:5 (v:v) with 0.005% phosphoric acid was used to extract the API (fosmetpantotenate) from the granulation at concentration of 0.75 mg/mL on an active basis. The sample suspension was ultrasonicated for 10 minutes to ensure complete API extraction followed by filtration using 0.45 μm PTFE filters to remove insoluble materials (i.e., MCC in the granulation samples). The filtrates were then transferred to individual vials and analyzed by HPLC.

[3] = reference substances; cited from earlier work
[4] = Accelerated stability of 10% drug loaded formulations, 25° C./60% RH, total related substances by HPLC; assay type: physicochemical; details: 10% drug loading
Procedure: Fosmetpantotenate was thinned with ethyl acetate (EtOAc) at a 1:1 weight/weight ratio, and then blended with each solid excipient using a mortar and pestle on the 0.1 g scale of fosmetpantotenate, i.e., 0.2 g 50% (fosmetpantotenate/EtOAc)+0.9 g solid. The resulting materials were dried overnight at room temperature in a HEPA hood to remove excess EtOAc.
The formulations were stored under accelerated stability conditions (25° C./60% relative humidity (RH)) for 4 weeks. Some samples were stored in “open” conditions, i.e., exposed to air; other samples were stored in closed containers. The amount of impurities was measured at beginning of storage (t=0), after 2 weeks of storage (t=2 weeks), and after 4 weeks of storage (t=4 weeks). The amount of impurities (total related substances, expressed as a percentage) was determined using the methods described in Example 26 below.
The amount of total impurities was determined via integration of HPLC peak areas within 3 days after the formulations were prepared and before beginning storage (time=0 weeks). The amount of total impurities was measured again after 2 weeks, 4 weeks, 6 weeks, 8 weeks, and 12 weeks of storage. Capsule samples for analysis were prepared by dissolving 5 capsules in a volumetric flask with H2O/ACN 50/50 (v/v) containing 0.1% (v/v) HCOOH. “Drug only” and granulation samples were prepared by adding the sample directly into a volumetric flask and diluting with H2O/ACN 50/50.

[5] = Chemical stability of formulations, 30° C. and 65% relative humidity, closed containers, 12 weeks, total impurities by HPLC; assay type: physicochemical
Procedure: A stability study was performed to assess the stability of fosmetpantotenate in the following formulations: 1 g fosmetpantotenate (“drug only”; containing approximately 10% acetic acid); 75 mg fosmetpantotenate EA capsules (10% ethyl acetate); 75 mg fosmetpantotenate LG-90 capsules (38% laurylglycol 90); fosmetpantotenate MCC granulation, as described in Example 2; and fosmetpantotenate mannitol granulation, as described in Example 3; and 25:75 fosmetpantotenate:HPMCAS-L Spray Dried Dispersion (SDD) granulation, as described in Example 24. Additionally, fosmetpantotenate without solid excipient or solvent (“drug only”) was stored closed in borosilicate glass vials. Formulations contained in soft gel capsules were stored in closed HDPE bottles, and solid fosmetpantotentate granulation formulations were stored in closed foil-foil packaging. Stability samples were stored at ca. −20° C. (control samples) and at 30° C. and 65% relative humidity in closed containers for 12 weeks.
The amount of total impurities was determined via integration of HPLC peak areas within 3 days after the formulations were prepared and before beginning storage (time=0 weeks). The amount of total impurities was measured again after 2 weeks, 4 weeks, 6 weeks, 8 weeks, and 12 weeks of storage. […]

With `CC(C)(COP(=O)(O)OP(=O)(O)OC[C@H]1O[C@@H](n2cnc3c(N)ncnc32)[C@H](O)[C@@H]1OP(=O)(O)O)[C@@H](O)C(=O)NCCC(=O)NCCS` [CoA, Coenzyme A] the “half-life of CoA, PanK2-deficient versus WT cells” value [1] was “somewhat shorter in PanK2-deficient cells than in WT cells”.
With `COC(=O)CCNC(=O)[C@H](O)C(C)(C)COP(=O)(N[C@@H](C)C(=O)OC)Oc1ccccc1` (some centres unmarked) [Fosmetpantotenate, no acid] the “Phenol (%)” value ([2]; 30° C./65% RH closed, t = 2 wk) was 0.20%, the “Phenol (%)” value ([2]; 30° C./65% RH closed, t = 4 wk) was 0.42% and the “Phenol (%)” value ([2]; 30° C./65% RH closed, t = 8 wk) was 1.62%. For the same compound, the “Phenol (%)” value ([2]; t = 0) was 0.12%, the “Impurities, excluding phenol (%)” value ([2]; 30° C./65% RH closed, t = 2 wk) was 3.69% and the “Total impurities (%)” value ([2]; 30° C./65% RH closed, t = 2 wk) was 4.44%. The “Impurities, excluding phenol (%)” value ([2]; 30° C./65% RH closed, t = 4 wk) was 7.01%, the “Total impurities (%)” value ([2]; 30° C./65% RH closed, t = 4 wk) was 8.54% and the “Impurities, excluding phenol (%)” value ([2]; 30° C./65% RH closed, t = 8 wk) was 12.82%. The “Total impurities (%)” value ([2]; 30° C./65% RH closed, t = 8 wk) was 17.73%, the “Impurities, excluding phenol (%)” value ([2]; t = 0) was 2.28% and the “Total impurities (%)” value ([2]; t = 0) was 2.75%.
In the case of `O` [Water], the “Viscosity (Cp)” value [3] is given as 1 Cp.
In the case of `COC(=O)CCNC(=O)[C@H](O)C(C)(C)COP(=O)(N[C@@H](C)C(=O)OC)Oc1ccccc1` (stereo partly drawn) [fosmetpantotenate, methyl 3-((2R)-2-hydroxy-4-(((((S)-1-methoxy-1-oxopropan-2-yl)amino)(phenoxy)phosphoryl)oxy)-3,3-dimethylbutanamido)propanoate], the “Total % Related Substances” value ([4]; 25° C./60% RH, t = 2 weeks, Closed) was 5.76%, the “Total % Related Substances” value ([4]; 25° C./60% RH, t = 2 weeks, Open) was 5.94% and the “Total % Related Substances” value ([4]; 25° C./60% RH, t = 4 weeks, Closed) was 6.39%. The “Total % Related Substances” value ([4]; 25° C./60% RH, t = 4 weeks, Open) was 6.29%, the “Total % Related Substances” value ([4]; t = 0) was 4.80% and the “average amount of degradation per week” value [5] was 2.6%.
